Where two headings read alike, the source gives them in different places.
Columns and labels:
[1] = molecular target: T1, human recombinant D3 receptor (Homo sapiens, UniProt P35462); test: Dopamine D3 receptor binding test; details: [3H]methyl-spiperone 0.3 nM, human recombinant D3 receptor expressed in CHO cells; read-out: Affinity of the compound for each receptor (Ki value, nM) D3
T1 construct: expressed in transfected cells; host or cells: CHO
Experimental: Dopamine D3 Receptor Binding Test
[^3H]methyl-spiperone (0.3 nM) was used as the ligand, and (+)-butaclamol (10 μM) was used to determine the non-specific binding, and the binding assay was performed on human recombinant D3 receptor (expressed in CHO cells).

5-HT2A receptor = molecular target: T2, 5-HT2A receptor (Homo sapiens, UniProt P28223); test: 5-HT2A receptor binding test
T2 construct: expressed in transfected cells; host or cells: HEK293
Source text: 5-HT2A Receptor Binding Test
Beckman LS-6500 multifunctional liquid scintillation counter.
Tris-HCl reaction buffer (pH 7.7) was used to resuspend in the experiment.

H1 receptor = molecular target: T3, H1 receptor (Homo sapiens, UniProt P35367); test: H1 receptor binding test; details: 1 nM [3H]pyrilamine, HEK-293 cell membrane homogenate; read-out: Affinity of the compound for H1 receptor (Ki value, nM) H1
T3 construct: expressed in transfected cells; host or cells: HEK-293
Experimental: Non-specific binding was determined in the presence of 1 μM pyrilamine.

[2] = tested on: mouse schizophrenic model induced by Apo.; test: Apomorphine model experiment (stereotyped motion); assay type: in vivo, C57BL/6 mice; details: for ED50: Mus musculus, single oral administration, apomorphine 5 mg/kg i.p., mice, read-out: Inhibition of total stereotyped motion of mouse schizophrenic model induced by Apo., ED50; for Effect (ED50) on the stereotyped behavior of mice compared with cariprazine: apomorphine model, oral
Experimental: 1. Apomorphine Model Experiment
1) 4 point, continuous biting;
2) 3 point, the cage lid was bit at least once during observation;
3) 2 point, the cage chassis or cage wall was licked at least once during observation;
4) 1 point, compulsive sniffing and bowing activities were appeared;
5) 0 point, no of the above activities.
The total score of the mice was calculated for the above behaviors within 70 min, and the improvement rate was calculated according to the following formula.
During the experiment, the clinical response symptoms of the animals were recorded.
All data were expressed as x±SEM, processed with the 11.5 software statistical package, and t-test and one-way analysis of variance were performed for the comparison of the means of the two samples, with P<0.05 as a significant difference.

[3] = Acute toxicity experiment, single oral administration; details: ICR, mouse, in vivo
Experimental: Acute Toxicity Experiments of the Compound
2) Solvent preparation: An appropriate amount of Tween-80 was weighed and diluted with deionized water to a concentration of […] (g/v) Tween-80.
4) Route of administration: The administration route of the test samples and the solvent control group (0.5% Tween-80) was oral administration.
5) Frequency of administration: Single administration, fasting overnight before administration.
6) Dosing capacity: 20 mL/kg.
[…]; the observation period was 2 to 6 days, twice a day, once in the morning and once in the afternoon.
The observation content includes, but is not limited to, general condition, behavioral activity, gait posture, eye, mouth, nose, gastrointestinal tract, skin hair, urogenital tract.
Body weight data were expressed as mean±standard deviation, and were compared between groups using Levene's test and one-way ANOVA. If there were differences, Dunnet t test was used.
In the MTD test, the tolerance of the animals to the drug was investigated, and the maximum tolerated dose was reached when the animals were dying frequently.

D2 receptor = D2 receptor (Homo sapiens, UniProt P14416); test: Dopamine D2 receptor binding test
Experimental: Dopamine D2 Receptor Binding Test
In this experiment, HEK293 cells were transfected with plasmid vector containing D2 receptor protein gene, and calcium phosphate transfection method was used and after transfection, the cells were cultured in a culture solution containing G418, and the cell monoclonal and radioligand binding experiments were selected, and finally a stable cell line which could stably express D2 receptor protein was obtained.
HeK-293 cells were infected with recombinant viruses containing the above various genes respectively, and after 48-72 hours, the receptor proteins were expressed in large quantities on the membrane, and the cells were centrifuged at 1000 rpm for 5 min and then the culture solution was discarded, and the cells were collected, and stored in a −20° C. refrigerator for later use. Tris-HCl reaction buffer (pH=7.5) was used to resuspend in the experiment.
On the Millipore cell sample collector, the mixture was quickly filtrated under reduced pressure through GF/C glass fiber filter paper, and eluted with 3 mL of eluent (50 mMTris-HCl, pH 7.5) for 3 times, then dried under microwave for 5 to 6 min. The filter paper was moved into a 0.5 mL centrifuge tube, and 500 μL of lipid-soluble scintillation solution was added. The mixture was kept in the dark for more than 30 min, and the radioactivity intensity was determined by counting. […] Two replicate tubes were made for each experiment of compound, and two separate experiments were performed.
Two tubes were tested for each concentration and two independent tests were performed for each compound.

[4] = tested on: mouse model of schizophrenia induced by MK-801; test: MK-801 model experiment (open-field motion); details: for ED50: Mus musculus, 1.5 h, read-out: Effect on the total distance of open-field motion in mouse model of schizophrenia induced by MK-801, ED50; for Improvement rate on open-field motion of mice compared with cariprazine: MK-801 model, oral
Experimental: An acute mode of administration was used in the experiment. The experimental mice were randomly divided into groups and put into a spontaneous activity box to adapt for 5-10 minutes before the experiment. […] The data were expressed as mean±standard error (Mean±SEM), and were analyzed using GraphPad Prism software, and data analysis was performed using t-test, and a significant difference was considered to exist when P<0.05.

[5] = [3H]-Ketanserin, 5-HT2A receptor expressed in HEK293 cells, read-out: Affinity of the compound for each receptor (Ki value, nM) 5-HT2A
[6] = single oral administration, ICR mice, read-out: MTD (maximum tolerance)

T1 sequence (P35462 whole entry): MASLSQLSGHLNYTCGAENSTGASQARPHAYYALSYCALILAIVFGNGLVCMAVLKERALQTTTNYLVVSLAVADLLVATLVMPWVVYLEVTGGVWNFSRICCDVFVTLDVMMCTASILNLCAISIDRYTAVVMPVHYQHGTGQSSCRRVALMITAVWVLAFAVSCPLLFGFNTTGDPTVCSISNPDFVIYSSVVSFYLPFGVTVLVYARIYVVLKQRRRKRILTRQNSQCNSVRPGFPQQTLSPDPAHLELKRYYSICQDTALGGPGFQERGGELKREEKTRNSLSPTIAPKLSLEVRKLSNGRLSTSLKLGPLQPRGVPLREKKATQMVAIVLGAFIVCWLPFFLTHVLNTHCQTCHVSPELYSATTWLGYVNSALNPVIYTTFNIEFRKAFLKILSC
T3 sequence (P35367 whole entry): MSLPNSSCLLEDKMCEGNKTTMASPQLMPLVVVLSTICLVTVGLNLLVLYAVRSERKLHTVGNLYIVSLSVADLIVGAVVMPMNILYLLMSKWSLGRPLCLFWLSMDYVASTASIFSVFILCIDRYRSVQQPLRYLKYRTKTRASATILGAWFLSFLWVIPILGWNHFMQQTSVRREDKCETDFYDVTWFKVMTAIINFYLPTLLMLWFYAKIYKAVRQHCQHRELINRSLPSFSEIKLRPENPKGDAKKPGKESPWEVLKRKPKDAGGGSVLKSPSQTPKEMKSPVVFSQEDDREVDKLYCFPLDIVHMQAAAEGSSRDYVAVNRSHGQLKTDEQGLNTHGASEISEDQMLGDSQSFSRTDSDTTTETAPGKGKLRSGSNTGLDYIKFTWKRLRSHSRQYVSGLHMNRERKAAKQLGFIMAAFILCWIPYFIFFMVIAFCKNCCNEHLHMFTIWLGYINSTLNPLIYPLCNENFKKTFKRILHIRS
D2 receptor, sequence (P14416 whole entry): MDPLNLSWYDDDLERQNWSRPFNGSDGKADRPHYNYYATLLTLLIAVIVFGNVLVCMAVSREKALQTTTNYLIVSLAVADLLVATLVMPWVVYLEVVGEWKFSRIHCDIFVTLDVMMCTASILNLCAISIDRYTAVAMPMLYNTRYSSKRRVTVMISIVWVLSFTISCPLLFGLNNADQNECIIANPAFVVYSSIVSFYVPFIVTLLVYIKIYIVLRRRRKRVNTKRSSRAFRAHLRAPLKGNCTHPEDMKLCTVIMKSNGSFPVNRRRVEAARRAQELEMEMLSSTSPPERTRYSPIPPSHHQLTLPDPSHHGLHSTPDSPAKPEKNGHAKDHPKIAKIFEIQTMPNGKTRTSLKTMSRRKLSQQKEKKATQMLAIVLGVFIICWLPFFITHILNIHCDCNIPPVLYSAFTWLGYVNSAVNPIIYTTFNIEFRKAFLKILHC
T2 sequence (P28223 whole entry): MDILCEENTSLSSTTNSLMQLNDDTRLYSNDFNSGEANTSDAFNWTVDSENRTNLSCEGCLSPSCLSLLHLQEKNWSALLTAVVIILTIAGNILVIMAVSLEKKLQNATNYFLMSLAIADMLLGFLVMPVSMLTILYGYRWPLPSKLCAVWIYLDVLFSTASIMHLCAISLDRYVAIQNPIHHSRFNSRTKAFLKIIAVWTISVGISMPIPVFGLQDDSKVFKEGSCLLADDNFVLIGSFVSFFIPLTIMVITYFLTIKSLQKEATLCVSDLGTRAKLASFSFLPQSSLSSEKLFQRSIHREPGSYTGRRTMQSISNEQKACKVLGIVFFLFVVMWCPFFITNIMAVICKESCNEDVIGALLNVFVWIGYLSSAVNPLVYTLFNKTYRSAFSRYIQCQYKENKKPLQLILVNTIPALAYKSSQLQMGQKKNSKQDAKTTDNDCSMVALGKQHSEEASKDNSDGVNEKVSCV

| SMILES | Ki [1] [nM] | Ki (5-HT2A receptor; [5]) [nM] | Ki (H1 receptor) [nM] | ED50 [2] [mg/kg] | Effect (ED50) on the stereotyped behavior of mice compared with cariprazine [2] | MTD [3, 6] [mg/kg] | Ki (D2 receptor) [nM] | ED50 [4] [mg/kg] | Improvement rate on open-field motion of mice compared with cariprazine [4] | Ki (5-HT2A receptor) [nM] | MTD [3] [mg/kg] |
| --- | --- | --- | --- | --- | --- | --- | --- | --- | --- | --- | --- |
| O=C(N[C@H]1CC[C@H](CCN2CCN(c3cc(-c4cccs4)cc(N4CCOCC4)n3)CC2)CC1)N1CCCC1 [VI-5, N-(trans-4-(2-(4-(6-morpholino-4-(thiophen-2-yl)pyridin-2-yl)piperazin-1-yl)ethyl)cyclohexyl)tetrahydropyrrole-1-carboxamide] | 0.07 | 1.1 | > 1000 | 0.16 | better effects | > 2000 | 1 | 0.08 |  |  |  |
| O=C(N[C@H]1CC[C@H](CCN2CCN(c3cc(-c4cccnc4)cc(N4CCOCC4)n3)CC2)CC1)c1ccco1 [IV-2] | 0.03 | 1.1 | > 1000 | 0.1 | better effects | > 2000 | 0.9 | 0.05 | better |  |  |
| O=C(N[C@H]1CC[C@H](CCN2CCN(c3cc(-c4ccco4)cc(N4CCOCC4)n3)CC2)CC1)N1CCOCC1 [Compound V-5, N-(trans-4-(2-(4-(4-(furan-2-yl)-6-morpholinopyridin-2-yl)piperazin-1-yl)ethyl)cyclohexyl)morpholine-4-carboxamide] | 0.04 | 2.9 | > 1000 | 0.78 |  | ≥ 400 | 1 | 0.51 |  |  |  |
| O=C(N[C@H]1CC[C@H](CCN2CCN(c3cc(-c4ccccc4)cc(N4CCOCC4)n3)CC2)CC1)c1ccco1 [Compound I-6, N-((trans)-4-(2-(4-(6-morpholino-4-phenylpyridin-2-yl)piperazin-1-yl)ethyl)cyclohexyl)furan-2-carboxamide] | 0.02 | 1 | > 1000 | 0.43 |  | > 2000 | 0.14 | 0.2 |  |  |  |
| CCOC(=O)N[C@H]1CC[C@H](CCN2CCN(c3cc(-c4ccccc4)cc(N4CCOCC4)n3)CC2)CC1 [Compound I-3, ethyl ((trans)-4-(2-(4-(6-morpholino-4-phenylpyridin-2-yl)piperazin-1-yl)ethyl)cyclohexyl)carbamate] | 0.08 |  | > 1000 | 0.19 | better effects | ≥ 400 | 2.5 | 0.33 |  | 2.1 |  |
| O=C(N[C@H]1CC[C@H](CCN2CCN(c3cc(-c4ccc(F)cc4)cc(N4CCOCC4)n3)CC2)CC1)c1cccnc1 [II-2, N-(trans-4-(2-(4-(4-(4-fluorophenyl)-6-morpholinopyridin-2-yl)piperazin-1-yl)ethyl)cyclohexyl)nicotinamide] | 0.07 | 2.4 | > 1000 | 0.08 | better effects | ≥ 400 | 0.9 | 0.07 | better |  |  |
| CN(C)C(=O)N[C@H]1CC[C@H](CCN2CCN(c3cc(-c4ccc[nH]4)cc(N4CCOCC4)n3)CC2)CC1 [VII-4, 1,1-dimethyl-3-(trans-4-(2-(4-(6-morpholino-4-(1H-pyrrol-2-yl)pyridin-2-yl)piperazin-1-yl)ethyl)cyclohexyl)urea] | 0.03 | 1.1 | > 1000 | 0.2 | better effects | ≥ 400 | 0.6 | 0.25 |  |  |  |
| CN(C)C(=O)N[C@H]1CC[C@H](CCN2CCN(c3cccc(Cl)c3Cl)CC2)CC1 [Cariprazine, cariprazine, reference compound] |  |  |  | 0.3 |  |  |  | 0.15 |  |  | 320 |

Reference: patent US12410136B2, “Pyridinyl morpholine compound, preparation method therefor, and application thereof” (SHANGHAI ZHONGZE THERAPEUTICS, CO. LTD., priority 2020, dated 2025)
